Key:
Experiment in all cases: Kinome-wide inhibition profiling
Type in all cases: biochemical
EPHA3 = target: T1, EPHA3 (Homo sapiens, UniProt P29320)
T1 construct: purchased Reaction Biology Corp
Procedure: (§1) In vitro CDK12/cyclinK assays for all compounds and in vitro kinome-wide inhibition profiling of 30d at 10 μM were performed by a CRO company (Reaction Biology Corp., San Diego, CA, USA).

BLK = target: T2, BLK (Homo sapiens, UniProt P51451)
T2 construct: purchased Reaction Biology Corp
Procedure: as §1

ARK5 = target: T3, ARK5 (Homo sapiens, UniProt O60285)
T3 construct: purchased Reaction Biology Corp
Procedure: as §1

OSR1 = target: T4, OSR1 (Homo sapiens, UniProt O95747)
T4 construct: purchased Reaction Biology Corp
Procedure: as §1

MAP3K2 = target: T5, MAP3K2 (Homo sapiens, UniProt Q9Y2U5)
T5 construct: purchased Reaction Biology Corp
Procedure: as §1

MARK4 = target: T6, MARK4 (Homo sapiens, UniProt Q96L34)
T6 construct: purchased Reaction Biology Corp
Procedure: as §1

LCK = target: T7, LCK (Homo sapiens, UniProt P06239)
T7 construct: purchased Reaction Biology Corp
Procedure: as §1

TIE2 = target: T8, TIE2 (Homo sapiens, UniProt Q02763)
T8 construct: purchased Reaction Biology Corp
Procedure: as §1

MYO3A = target: T9, MYO3A (Homo sapiens, UniProt Q8NEV4)
T9 construct: purchased Reaction Biology Corp
Procedure: as §1

NEK9 = target: T10, NEK9 (Homo sapiens, UniProt Q8TD19)
T10 construct: purchased Reaction Biology Corp
Procedure: as §1

SYK = target: T11, SYK (Homo sapiens, UniProt P43405)
T11 construct: purchased Reaction Biology Corp
Procedure: as §1

HPK1 = target: T12, HPK1 (Homo sapiens, UniProt Q92918)
T12 construct: purchased Reaction Biology Corp
Procedure: as §1

MKK7 = target: T13, MKK7 (Homo sapiens, UniProt O14733)
T13 construct: purchased Reaction Biology Corp
Procedure: as §1

STK23 = target: T14, STK23 (Homo sapiens, UniProt Q9UPE1)
T14 construct: purchased Reaction Biology Corp
Procedure: as §1

PRKCQ = target: T15, PRKCQ (Homo sapiens, UniProt Q04759)
T15 construct: purchased Reaction Biology Corp
Procedure: as §1

ROCK1 = target: T16, ROCK1 (Homo sapiens, UniProt Q13464)
T16 construct: purchased Reaction Biology Corp
Procedure: as §1

ROCK2 = target: T17, ROCK2 (Homo sapiens, UniProt O75116)
T17 construct: purchased Reaction Biology Corp
Procedure: as §1

GRK2 = target: T18, GRK2 (Homo sapiens, UniProt P25098)
T18 construct: purchased Reaction Biology Corp
Procedure: as §1

SRPK2 = target: T19, SRPK2 (Homo sapiens, UniProt P78362)
T19 construct: purchased Reaction Biology Corp
Procedure: as §1

SGK3 = target: T20, SGK3 (Homo sapiens, UniProt Q96BR1)
T20 construct: purchased Reaction Biology Corp
Procedure: as §1

MST2 = target: T21, MST2 (Homo sapiens, UniProt Q13188)
T21 construct: purchased Reaction Biology Corp
Procedure: as §1

CAMK1a = target: T22, CAMK1a (Homo sapiens, UniProt Q14012)
T22 construct: purchased Reaction Biology Corp
Procedure: as §1

PRKCH = target: T23, PRKCH (Homo sapiens, UniProt P24723)
T23 construct: purchased Reaction Biology Corp
Procedure: as §1

SNARK = target: T24, SNARK (Homo sapiens, UniProt Q9H093)
T24 construct: purchased Reaction Biology Corp
Procedure: as §1

PKA = target: T25, PKA (Homo sapiens, UniProt P17612)
T25 construct: purchased Reaction Biology Corp
Procedure: as §1

MLK1 = target: T26, MLK1 (Homo sapiens, UniProt P80192)
T26 construct: purchased Reaction Biology Corp
Procedure: as §1

MLK3 = target: T27, MLK3 (Homo sapiens, UniProt Q16584)
T27 construct: purchased Reaction Biology Corp
Procedure: as §1

HIPK4 = target: T28, HIPK4 (Homo sapiens, UniProt Q8NE63)
T28 construct: purchased Reaction Biology Corp
Procedure: as §1

TAOK1 = target: T29, TAOK1 (Homo sapiens, UniProt Q7L7X3)
T29 construct: purchased Reaction Biology Corp
Procedure: as §1

CLK3 = target: T30, CLK3 (Homo sapiens, UniProt P49761)
T30 construct: purchased Reaction Biology Corp
Procedure: as §1

GRK1 = target: T31, GRK1 (Homo sapiens, UniProt Q15835)
T31 construct: purchased Reaction Biology Corp
Procedure: as §1

ERN2 = target: T32, ERN2 (Homo sapiens, UniProt Q76MJ5)
T32 construct: purchased Reaction Biology Corp
Procedure: as §1

PRKX = target: T33, PRKX (Homo sapiens, UniProt P51817)
T33 construct: purchased Reaction Biology Corp
Procedure: as §1

MST1 = target: T34, MST1 (Homo sapiens, UniProt Q13043)
T34 construct: purchased Reaction Biology Corp
Procedure: as §1

TLK2 = target: T35, TLK2 (Homo sapiens, UniProt Q86UE8)
T35 construct: purchased Reaction Biology Corp
Procedure: as §1

NEK4 = target: T36, NEK4 (Homo sapiens, UniProt P51957)
T36 construct: purchased Reaction Biology Corp
Procedure: as §1

SNRK = target: T37, SNRK (Homo sapiens, UniProt Q9NRH2)
T37 construct: purchased Reaction Biology Corp
Procedure: as §1

ULK1 = target: T38, ULK1 (Homo sapiens, UniProt O75385)
T38 construct: purchased Reaction Biology Corp
Procedure: as §1

FAK = target: T39, FAK (Homo sapiens, UniProt Q05397)
T39 construct: purchased Reaction Biology Corp
Procedure: as §1

PRKG1 = target: T40, PRKG1 (Homo sapiens, UniProt Q13976)
T40 construct: purchased Reaction Biology Corp
Procedure: as §1

LTK = target: T41, LTK (Homo sapiens, UniProt P29376)
T41 construct: purchased Reaction Biology Corp
Procedure: as §1

MEK2 = target: T42, MEK2 (Homo sapiens, UniProt P36507)
T42 construct: purchased Reaction Biology Corp
Procedure: as §1

PIM2 = target: T43, PIM2 (Homo sapiens, UniProt Q9P1W9)
T43 construct: purchased Reaction Biology Corp
Procedure: as §1

SBK1 = target: T44, SBK1 (Homo sapiens, UniProt Q52WX2)
T44 construct: purchased Reaction Biology Corp
Procedure: as §1

T23 sequence (P24723 whole entry): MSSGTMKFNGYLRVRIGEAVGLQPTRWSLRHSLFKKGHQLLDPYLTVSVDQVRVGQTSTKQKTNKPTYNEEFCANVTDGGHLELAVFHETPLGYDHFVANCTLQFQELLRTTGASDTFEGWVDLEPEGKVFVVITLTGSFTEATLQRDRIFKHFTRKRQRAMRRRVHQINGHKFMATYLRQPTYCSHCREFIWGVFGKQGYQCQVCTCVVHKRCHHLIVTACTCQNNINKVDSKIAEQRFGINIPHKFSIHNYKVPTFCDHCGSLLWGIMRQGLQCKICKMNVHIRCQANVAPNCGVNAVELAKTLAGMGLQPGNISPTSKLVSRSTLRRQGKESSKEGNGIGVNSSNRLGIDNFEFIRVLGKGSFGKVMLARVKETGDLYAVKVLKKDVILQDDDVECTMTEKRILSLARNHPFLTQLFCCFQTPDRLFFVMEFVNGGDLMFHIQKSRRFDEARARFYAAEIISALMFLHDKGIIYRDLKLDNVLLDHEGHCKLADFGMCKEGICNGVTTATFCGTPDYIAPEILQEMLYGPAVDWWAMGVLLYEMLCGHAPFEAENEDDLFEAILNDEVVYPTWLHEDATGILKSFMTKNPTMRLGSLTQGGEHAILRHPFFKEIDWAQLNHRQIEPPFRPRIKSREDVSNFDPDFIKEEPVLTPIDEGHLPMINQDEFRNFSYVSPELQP
T7 sequence (P06239 whole entry): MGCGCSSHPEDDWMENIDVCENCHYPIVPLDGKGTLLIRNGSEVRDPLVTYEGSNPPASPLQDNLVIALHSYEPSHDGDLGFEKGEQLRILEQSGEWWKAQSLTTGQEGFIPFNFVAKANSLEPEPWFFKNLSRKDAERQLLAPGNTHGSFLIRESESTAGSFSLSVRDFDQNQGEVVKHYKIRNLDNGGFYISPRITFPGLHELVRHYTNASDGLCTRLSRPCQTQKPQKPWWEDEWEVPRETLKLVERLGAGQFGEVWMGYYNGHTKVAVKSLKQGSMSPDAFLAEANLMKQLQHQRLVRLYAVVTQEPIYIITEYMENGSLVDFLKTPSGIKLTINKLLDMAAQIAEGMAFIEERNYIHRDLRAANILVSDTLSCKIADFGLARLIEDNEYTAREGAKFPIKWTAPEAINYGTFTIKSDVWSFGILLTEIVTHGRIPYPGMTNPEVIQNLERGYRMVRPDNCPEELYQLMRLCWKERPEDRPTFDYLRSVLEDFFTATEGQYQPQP
T41 sequence (P29376 17-864): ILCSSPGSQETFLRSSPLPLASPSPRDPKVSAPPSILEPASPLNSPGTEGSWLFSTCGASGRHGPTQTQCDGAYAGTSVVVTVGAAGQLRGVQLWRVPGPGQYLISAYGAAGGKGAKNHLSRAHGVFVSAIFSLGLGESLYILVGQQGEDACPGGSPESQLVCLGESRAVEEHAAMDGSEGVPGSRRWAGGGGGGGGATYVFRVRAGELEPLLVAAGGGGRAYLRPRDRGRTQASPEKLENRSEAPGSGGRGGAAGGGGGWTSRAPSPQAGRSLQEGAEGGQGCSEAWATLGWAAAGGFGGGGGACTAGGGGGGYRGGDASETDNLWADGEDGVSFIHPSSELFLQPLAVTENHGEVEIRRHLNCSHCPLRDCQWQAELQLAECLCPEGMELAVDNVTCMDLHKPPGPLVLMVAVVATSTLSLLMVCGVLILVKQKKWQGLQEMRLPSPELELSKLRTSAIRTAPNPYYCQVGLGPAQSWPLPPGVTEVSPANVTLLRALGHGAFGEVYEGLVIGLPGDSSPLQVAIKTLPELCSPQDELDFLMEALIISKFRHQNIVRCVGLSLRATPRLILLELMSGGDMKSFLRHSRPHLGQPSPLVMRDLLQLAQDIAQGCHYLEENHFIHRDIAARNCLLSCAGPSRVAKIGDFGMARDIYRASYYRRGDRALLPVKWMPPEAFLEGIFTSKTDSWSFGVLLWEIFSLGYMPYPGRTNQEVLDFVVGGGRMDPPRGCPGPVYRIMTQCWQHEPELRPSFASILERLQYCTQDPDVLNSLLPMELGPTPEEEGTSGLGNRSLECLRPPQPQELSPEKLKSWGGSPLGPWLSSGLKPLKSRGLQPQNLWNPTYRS
T33 sequence (P51817 whole entry): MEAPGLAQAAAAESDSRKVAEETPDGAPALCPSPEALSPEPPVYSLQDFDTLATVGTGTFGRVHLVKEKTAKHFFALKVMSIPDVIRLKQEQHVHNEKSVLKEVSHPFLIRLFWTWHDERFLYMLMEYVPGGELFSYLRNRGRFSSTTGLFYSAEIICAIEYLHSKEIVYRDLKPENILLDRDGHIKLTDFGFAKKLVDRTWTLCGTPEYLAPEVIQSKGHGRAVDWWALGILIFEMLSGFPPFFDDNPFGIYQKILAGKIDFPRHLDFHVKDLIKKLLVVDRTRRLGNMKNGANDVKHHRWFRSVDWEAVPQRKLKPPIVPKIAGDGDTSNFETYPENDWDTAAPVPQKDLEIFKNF
T44 sequence (Q52WX2 whole entry): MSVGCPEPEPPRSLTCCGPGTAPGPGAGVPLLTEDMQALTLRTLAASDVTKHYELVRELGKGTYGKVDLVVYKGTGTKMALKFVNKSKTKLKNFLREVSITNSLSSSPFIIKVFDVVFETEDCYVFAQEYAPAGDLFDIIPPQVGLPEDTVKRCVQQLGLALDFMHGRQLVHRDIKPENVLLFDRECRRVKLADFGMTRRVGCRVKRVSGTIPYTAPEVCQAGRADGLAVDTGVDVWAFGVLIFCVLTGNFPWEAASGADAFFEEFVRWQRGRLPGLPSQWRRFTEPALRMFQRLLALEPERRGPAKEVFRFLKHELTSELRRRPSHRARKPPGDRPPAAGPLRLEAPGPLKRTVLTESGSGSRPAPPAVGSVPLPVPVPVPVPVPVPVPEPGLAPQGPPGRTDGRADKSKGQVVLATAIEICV
T6 sequence (Q96L34 whole entry): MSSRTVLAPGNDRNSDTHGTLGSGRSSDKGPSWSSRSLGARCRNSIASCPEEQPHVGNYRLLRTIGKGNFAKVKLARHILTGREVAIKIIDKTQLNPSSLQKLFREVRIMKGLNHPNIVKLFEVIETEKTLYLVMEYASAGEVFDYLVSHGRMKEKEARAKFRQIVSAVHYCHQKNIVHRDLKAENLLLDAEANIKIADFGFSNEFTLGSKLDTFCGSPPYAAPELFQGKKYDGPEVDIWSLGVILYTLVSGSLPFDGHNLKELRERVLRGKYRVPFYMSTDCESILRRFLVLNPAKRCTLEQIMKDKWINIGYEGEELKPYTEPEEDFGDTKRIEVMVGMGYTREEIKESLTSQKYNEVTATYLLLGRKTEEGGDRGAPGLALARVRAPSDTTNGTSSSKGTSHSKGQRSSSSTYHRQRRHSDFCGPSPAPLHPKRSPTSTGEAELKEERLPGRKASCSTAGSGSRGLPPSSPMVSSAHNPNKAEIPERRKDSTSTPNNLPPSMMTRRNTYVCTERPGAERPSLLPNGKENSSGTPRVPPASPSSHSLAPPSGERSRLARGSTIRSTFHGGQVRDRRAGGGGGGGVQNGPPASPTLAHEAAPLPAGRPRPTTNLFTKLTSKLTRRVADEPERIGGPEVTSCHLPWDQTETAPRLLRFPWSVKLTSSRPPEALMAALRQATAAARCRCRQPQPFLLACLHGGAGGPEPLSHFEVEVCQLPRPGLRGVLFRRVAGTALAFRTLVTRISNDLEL
T1 sequence (P29320 21-983): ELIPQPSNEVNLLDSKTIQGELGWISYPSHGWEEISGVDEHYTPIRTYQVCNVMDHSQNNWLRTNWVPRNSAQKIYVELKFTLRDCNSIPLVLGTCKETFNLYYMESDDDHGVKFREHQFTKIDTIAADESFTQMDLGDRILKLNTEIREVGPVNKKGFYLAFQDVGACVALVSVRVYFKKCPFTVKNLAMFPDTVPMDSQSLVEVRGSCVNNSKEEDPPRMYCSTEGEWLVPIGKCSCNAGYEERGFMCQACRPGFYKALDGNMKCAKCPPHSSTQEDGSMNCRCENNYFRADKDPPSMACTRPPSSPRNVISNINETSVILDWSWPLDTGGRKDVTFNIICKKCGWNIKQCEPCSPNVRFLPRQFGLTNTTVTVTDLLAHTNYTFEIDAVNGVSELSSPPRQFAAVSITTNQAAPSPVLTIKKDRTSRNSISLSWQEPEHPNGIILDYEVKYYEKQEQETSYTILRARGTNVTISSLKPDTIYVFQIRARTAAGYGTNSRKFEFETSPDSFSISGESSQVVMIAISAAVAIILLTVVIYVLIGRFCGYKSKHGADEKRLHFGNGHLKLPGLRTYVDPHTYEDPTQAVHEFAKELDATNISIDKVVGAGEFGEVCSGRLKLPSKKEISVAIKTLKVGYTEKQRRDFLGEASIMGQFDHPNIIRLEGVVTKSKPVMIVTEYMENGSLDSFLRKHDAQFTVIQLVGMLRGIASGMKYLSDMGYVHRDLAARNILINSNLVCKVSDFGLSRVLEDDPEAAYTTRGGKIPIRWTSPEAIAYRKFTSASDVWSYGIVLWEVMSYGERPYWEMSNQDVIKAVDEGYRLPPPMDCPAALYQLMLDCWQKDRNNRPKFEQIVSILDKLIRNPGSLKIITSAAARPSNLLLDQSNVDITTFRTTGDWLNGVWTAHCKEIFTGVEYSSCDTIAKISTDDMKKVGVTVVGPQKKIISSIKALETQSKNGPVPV
T21 sequence (Q13188 whole entry): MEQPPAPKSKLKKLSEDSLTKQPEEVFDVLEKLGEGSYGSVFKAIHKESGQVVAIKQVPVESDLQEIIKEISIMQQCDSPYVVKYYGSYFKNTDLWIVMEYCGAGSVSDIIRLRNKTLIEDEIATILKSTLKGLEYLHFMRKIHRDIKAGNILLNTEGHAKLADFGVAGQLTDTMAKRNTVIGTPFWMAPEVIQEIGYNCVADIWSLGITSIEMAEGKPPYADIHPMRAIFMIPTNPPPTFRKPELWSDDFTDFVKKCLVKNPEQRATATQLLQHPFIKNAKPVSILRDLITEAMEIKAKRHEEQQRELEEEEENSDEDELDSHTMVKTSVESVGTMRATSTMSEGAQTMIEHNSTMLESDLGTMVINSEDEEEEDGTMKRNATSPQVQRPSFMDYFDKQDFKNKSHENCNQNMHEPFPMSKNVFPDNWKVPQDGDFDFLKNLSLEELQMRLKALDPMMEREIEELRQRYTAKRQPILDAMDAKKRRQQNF

## CCn1cnc2c(NCc3ccc(-c4ccccn4)nc3)nc(-c3ccc(N)nc3)nc21 [Compound 30d, N-([2,2′-Bipyridin]-5-ylmethyl)-2-(6-aminopyridin-3-yl)-9-ethyl-9H-purin-6-amine]
EPHA3
  remaining activity at 10 µM: 7.8%
BLK
  remaining activity at 10 µM: 66.8%
ARK5
  remaining activity at 10 µM: 20.8%
OSR1
  remaining activity at 10 µM: 50.8%
MAP3K2
  remaining activity at 10 µM: 90%
MARK4
  remaining activity at 10 µM: 66.9%
LCK
  remaining activity at 10 µM: 83.6%
TIE2
  remaining activity at 10 µM: 34.8%
MYO3A
  remaining activity at 10 µM: 71.3%
NEK9
  remaining activity at 10 µM: 90%
SYK
  remaining activity at 10 µM: 48.4%
HPK1
  remaining activity at 10 µM: 30.2%
MKK7
  remaining activity at 10 µM: 96.3%
STK23
  remaining activity at 10 µM: 82.8%
PRKCQ
  remaining activity at 10 µM: 79.8%
ROCK1
  remaining activity at 10 µM: 97.2%
ROCK2
  remaining activity at 10 µM: 92.3%
GRK2
  remaining activity at 10 µM: 99.1%
SRPK2
  remaining activity at 10 µM: 60.7%
SGK3
  remaining activity at 10 µM: 92.6%
MST2
  remaining activity at 10 µM: 53.5%
CAMK1a
  remaining activity at 10 µM: 34%
PRKCH
  remaining activity at 10 µM: 87.9%
SNARK
  remaining activity at 10 µM: 59%
PKA
  remaining activity at 10 µM: 93.1%
MLK1
  remaining activity at 10 µM: 27.9%
MLK3
  remaining activity at 10 µM: 51.4%
HIPK4
  remaining activity at 10 µM: 43.9%
TAOK1
  remaining activity at 10 µM: 28.1%
CLK3
  remaining activity at 10 µM: 94.6%
GRK1
  remaining activity at 10 µM: 76.3%
ERN2
  remaining activity at 10 µM: 65.4%
PRKX
  remaining activity at 10 µM: 79.2%
MST1
  remaining activity at 10 µM: 62.2%
TLK2
  remaining activity at 10 µM: 72.2%
NEK4
  remaining activity at 10 µM: 95.8%
SNRK
  remaining activity at 10 µM: 93%
ULK1
  remaining activity at 10 µM: 70.3%
FAK
  remaining activity at 10 µM: 52.5%
PRKG1
  remaining activity at 10 µM: 108%
LTK
  remaining activity at 10 µM: 73.6%
MEK2
  remaining activity at 10 µM: 176%
PIM2
  remaining activity at 10 µM: 93.8%
SBK1
  remaining activity at 10 µM: 94.5%

Source: paper PMC9506414, “Novel 2,6,9-Trisubstituted Purines as Potent CDK Inhibitors Alleviating Trastuzumab-Resistance of HER2-Positive Breast Cancers” (Pharmaceuticals, 2022)
